# Test results as given in patent publication US10927106B2, “Benzothiazole derivatives as DYRK1 inhibitors” (PHARMASUM THERAPEUTICS AS, priority 2017, dated 2021).
# How the values were obtained:
# Test in all cases: Kinase profiling, 33P ATP filter binding assay
# Format in all cases: biochemical
# Conditions in all cases: 1 micromolar inhibitor concentration, read-out: percentage inhibition
# WNK1 = WNK1 (Homo sapiens (Human), UniProt Q9H4A3)
# p38d MAPK = p38d MAPK (Homo sapiens (Human), UniProt O15264)
# PLK1 = PLK1 (Homo sapiens (Human), UniProt P53350)
# PKBa = PKBa (Homo sapiens (Human), UniProt P31749)
# MSK1 = MSK1 (Homo sapiens (Human), UniProt O75582)
# CSK = CSK (Homo sapiens (Human), UniProt P41240)
# PDGFRA = PDGFRA (Homo sapiens (Human), UniProt P16234)
# EPH-A4 = EPH-A4 (Homo sapiens (Human), UniProt P54764)
# FGF-R1 = FGF-R1 (Homo sapiens (Human), UniProt P11362)
# PAK6 = PAK6 (Homo sapiens (Human), UniProt Q9NQU5)
# MLK3 = MLK3 (Homo sapiens (Human), UniProt Q16584)
# SYK = SYK (Homo sapiens (Human), UniProt P43405)
# MPSK1 = MPSK1 (Homo sapiens (Human), UniProt O75716)
# TTBK1 = TTBK1 (Homo sapiens (Human), UniProt Q5TCY1)
# IR = IR (Homo sapiens (Human), UniProt P06213)
# SmMLCK = SmMLCK (Homo sapiens (Human), UniProt Q15746)
# Procedure: The determination of protein kinase inhibition was performed at the International Centre for Kinase Profiling at the University of Dundee, UK. […] The ATP concentrations were at or below the calculated Km for ATP for each particular kinase.
# HIPK3 = HIPK3 (Homo sapiens (Human), UniProt Q9H422)
# TLK1 = TLK1 (Homo sapiens (Human), UniProt Q9UKI8)
# NUAK1 = NUAK1 (Homo sapiens (Human), UniProt O60285)
# BRSK1 = BRSK1 (Homo sapiens (Human), UniProt Q8TDC3)
# PAK4 = PAK4 (Homo sapiens (Human), UniProt O96013)
# PKBb = PKBb (Homo sapiens (Human), UniProt P31751)
# CHK2 = CHK2 (Homo sapiens (Human), UniProt O96017)
# p38a MAPK = p38a MAPK (Homo sapiens (Human), UniProt Q16539)
# MAP4K5 = MAP4K5 (Homo sapiens (Human), UniProt Q9Y4K4)
# BTK = BTK (Homo sapiens (Human), UniProt Q06187)
# ASK1 = ASK1 (Homo sapiens (Human), UniProt Q99683)
# DDR2 = DDR2 (Homo sapiens (Human), UniProt Q16832)
# TIE2 = TIE2 (Homo sapiens (Human), UniProt Q02763)
# IRAK1 = IRAK1 (Homo sapiens (Human), UniProt P51617)
# MARK4 = MARK4 (Homo sapiens (Human), UniProt Q96L34)
# TAO1 = TAO1 (Homo sapiens (Human), UniProt Q7L7X3)
# TESK1 = TESK1 (Homo sapiens (Human), UniProt Q15569)
# PKCa = PKCa (Homo sapiens (Human), UniProt P17252)
# YES1 = YES1 (Homo sapiens (Human), UniProt P07947)
# MEKK1 = MEKK1 (Homo sapiens (Human), UniProt Q13233)
# STK33 = STK33 (Homo sapiens (Human), UniProt Q9BYT3)
# BRK = BRK (Homo sapiens (Human), UniProt Q13882)
# CDK9-Cyclin T1 = CDK9-Cyclin T1 (Homo sapiens (Human), UniProt P50750)
# MAPKAP-K2 = MAPKAP-K2 (Homo sapiens (Human), UniProt P49137)
# PAK5 = PAK5 (Homo sapiens (Human), UniProt Q9P286)
# Sequence of MAP4K5 (Q9Y4K4 whole entry, species assumed): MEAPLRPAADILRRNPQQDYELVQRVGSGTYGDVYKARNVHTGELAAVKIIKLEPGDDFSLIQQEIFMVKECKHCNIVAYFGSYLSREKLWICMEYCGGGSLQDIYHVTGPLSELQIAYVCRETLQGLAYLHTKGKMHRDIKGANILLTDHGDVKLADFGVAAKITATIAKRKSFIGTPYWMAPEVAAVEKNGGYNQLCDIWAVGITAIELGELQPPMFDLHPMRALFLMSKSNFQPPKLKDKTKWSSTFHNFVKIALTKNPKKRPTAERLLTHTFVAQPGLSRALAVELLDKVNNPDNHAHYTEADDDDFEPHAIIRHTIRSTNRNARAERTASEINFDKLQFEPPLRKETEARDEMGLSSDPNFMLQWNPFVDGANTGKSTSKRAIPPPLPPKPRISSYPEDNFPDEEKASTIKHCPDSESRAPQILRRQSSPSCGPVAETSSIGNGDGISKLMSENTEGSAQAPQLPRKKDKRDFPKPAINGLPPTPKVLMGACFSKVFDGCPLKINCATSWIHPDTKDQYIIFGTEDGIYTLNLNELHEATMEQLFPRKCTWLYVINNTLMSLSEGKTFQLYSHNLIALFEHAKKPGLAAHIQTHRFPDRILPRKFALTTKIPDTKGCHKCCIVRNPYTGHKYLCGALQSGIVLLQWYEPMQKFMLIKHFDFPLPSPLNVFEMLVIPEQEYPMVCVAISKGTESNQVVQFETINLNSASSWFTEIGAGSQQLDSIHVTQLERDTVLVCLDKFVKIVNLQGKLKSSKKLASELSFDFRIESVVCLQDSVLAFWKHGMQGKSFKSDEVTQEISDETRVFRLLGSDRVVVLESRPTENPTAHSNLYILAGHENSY
# Sequence of CDK9-Cyclin T1 (P50750 whole entry): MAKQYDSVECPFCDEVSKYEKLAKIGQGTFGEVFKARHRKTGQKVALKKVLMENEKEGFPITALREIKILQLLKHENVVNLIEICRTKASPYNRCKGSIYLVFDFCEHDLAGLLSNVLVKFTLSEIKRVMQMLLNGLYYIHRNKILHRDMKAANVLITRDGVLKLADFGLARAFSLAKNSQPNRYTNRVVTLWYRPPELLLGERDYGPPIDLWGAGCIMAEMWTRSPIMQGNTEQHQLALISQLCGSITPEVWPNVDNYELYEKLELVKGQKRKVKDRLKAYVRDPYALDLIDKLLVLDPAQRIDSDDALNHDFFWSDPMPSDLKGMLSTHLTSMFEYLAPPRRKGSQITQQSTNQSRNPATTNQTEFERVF
# Sequence of CDK9-Cyclin T1 (O60563 whole entry partner): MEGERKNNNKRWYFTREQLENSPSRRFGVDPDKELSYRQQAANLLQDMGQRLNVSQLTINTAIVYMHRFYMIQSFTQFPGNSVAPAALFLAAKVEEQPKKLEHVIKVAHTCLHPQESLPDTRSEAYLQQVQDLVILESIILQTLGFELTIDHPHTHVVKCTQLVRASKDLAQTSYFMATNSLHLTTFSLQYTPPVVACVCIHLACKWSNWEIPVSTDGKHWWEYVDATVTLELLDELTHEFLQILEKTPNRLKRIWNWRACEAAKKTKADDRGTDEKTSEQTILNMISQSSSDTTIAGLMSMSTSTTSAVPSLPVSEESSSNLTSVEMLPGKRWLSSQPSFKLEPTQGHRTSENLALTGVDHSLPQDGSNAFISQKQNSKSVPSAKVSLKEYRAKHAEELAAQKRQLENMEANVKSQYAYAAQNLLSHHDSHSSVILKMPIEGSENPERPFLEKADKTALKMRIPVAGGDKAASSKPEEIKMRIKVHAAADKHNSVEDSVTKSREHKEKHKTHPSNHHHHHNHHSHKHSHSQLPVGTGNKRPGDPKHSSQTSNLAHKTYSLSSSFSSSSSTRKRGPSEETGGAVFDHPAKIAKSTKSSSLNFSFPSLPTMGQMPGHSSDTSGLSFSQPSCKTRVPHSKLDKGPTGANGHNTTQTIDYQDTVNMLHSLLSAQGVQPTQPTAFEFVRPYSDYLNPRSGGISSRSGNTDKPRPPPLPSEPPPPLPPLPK
# Sequence of TTBK1 (Q5TCY1 whole entry, species assumed): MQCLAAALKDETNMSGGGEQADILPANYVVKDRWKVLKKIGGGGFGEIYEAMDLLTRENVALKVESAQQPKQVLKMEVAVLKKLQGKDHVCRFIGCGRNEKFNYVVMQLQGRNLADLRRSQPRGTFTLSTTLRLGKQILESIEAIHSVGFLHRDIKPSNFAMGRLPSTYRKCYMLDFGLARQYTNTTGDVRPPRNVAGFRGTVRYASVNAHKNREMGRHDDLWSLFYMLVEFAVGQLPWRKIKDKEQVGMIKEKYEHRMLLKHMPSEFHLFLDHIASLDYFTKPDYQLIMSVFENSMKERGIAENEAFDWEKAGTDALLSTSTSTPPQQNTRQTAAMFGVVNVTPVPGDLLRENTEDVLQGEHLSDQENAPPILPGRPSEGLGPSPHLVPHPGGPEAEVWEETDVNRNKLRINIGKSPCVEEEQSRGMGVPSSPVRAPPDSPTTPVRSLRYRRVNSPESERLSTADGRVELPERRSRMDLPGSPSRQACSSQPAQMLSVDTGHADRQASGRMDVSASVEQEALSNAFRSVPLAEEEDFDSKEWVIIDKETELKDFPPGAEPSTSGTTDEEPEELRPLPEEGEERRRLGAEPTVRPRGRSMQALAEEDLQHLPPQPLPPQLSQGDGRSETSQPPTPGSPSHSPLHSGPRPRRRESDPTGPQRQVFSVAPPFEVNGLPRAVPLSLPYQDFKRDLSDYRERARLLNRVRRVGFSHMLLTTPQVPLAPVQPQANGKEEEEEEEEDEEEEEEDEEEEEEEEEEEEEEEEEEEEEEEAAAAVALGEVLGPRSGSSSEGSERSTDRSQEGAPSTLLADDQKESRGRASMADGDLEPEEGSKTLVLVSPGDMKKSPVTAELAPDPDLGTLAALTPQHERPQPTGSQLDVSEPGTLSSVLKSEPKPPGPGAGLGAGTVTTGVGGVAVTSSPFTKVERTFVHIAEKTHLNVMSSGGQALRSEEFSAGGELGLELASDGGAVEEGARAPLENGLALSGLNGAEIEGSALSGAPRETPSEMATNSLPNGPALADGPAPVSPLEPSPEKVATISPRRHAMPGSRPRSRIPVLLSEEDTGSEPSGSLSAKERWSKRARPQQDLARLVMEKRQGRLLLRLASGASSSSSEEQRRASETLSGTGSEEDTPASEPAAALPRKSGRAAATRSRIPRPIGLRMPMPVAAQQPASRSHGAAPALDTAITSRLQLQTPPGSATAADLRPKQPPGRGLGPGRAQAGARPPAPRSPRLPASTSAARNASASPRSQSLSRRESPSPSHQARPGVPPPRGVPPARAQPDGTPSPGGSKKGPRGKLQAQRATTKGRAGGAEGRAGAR
# Sequence of IR (P06213 28-1382): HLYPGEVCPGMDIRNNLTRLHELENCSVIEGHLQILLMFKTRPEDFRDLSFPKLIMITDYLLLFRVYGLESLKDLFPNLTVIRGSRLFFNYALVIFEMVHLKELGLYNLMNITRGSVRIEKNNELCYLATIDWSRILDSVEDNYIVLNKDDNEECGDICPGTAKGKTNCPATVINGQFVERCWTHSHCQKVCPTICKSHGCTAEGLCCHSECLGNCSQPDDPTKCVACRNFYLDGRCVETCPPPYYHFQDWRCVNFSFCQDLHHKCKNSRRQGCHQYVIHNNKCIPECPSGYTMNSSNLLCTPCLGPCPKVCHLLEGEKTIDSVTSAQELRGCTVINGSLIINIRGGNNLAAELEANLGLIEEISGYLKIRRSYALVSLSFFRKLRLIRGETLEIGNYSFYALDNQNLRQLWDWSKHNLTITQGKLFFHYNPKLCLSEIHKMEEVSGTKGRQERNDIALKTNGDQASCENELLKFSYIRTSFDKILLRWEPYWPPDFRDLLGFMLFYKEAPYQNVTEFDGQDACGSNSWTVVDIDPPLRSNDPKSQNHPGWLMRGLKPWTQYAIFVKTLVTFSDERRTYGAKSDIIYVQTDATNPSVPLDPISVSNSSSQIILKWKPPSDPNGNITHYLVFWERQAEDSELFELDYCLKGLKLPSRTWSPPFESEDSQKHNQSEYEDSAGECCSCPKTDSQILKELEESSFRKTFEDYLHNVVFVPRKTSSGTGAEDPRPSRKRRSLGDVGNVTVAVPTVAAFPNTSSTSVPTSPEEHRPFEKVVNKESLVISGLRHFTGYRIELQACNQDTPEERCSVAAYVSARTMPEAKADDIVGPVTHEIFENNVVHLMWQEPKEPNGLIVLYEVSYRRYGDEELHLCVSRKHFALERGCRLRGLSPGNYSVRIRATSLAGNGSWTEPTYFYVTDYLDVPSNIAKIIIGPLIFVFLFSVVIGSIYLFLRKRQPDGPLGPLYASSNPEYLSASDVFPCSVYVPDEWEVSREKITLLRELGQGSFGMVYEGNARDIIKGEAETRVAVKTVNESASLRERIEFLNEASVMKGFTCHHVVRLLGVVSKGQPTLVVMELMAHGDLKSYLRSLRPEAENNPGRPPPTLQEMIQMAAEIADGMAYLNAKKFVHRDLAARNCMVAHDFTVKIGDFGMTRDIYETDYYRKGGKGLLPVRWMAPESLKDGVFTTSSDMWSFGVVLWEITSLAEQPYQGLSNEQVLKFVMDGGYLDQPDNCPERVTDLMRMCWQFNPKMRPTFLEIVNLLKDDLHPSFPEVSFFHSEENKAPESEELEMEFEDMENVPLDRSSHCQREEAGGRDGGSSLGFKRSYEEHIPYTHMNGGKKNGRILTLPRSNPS
# Sequence of MAPKAP-K2 (P49137 whole entry, species assumed): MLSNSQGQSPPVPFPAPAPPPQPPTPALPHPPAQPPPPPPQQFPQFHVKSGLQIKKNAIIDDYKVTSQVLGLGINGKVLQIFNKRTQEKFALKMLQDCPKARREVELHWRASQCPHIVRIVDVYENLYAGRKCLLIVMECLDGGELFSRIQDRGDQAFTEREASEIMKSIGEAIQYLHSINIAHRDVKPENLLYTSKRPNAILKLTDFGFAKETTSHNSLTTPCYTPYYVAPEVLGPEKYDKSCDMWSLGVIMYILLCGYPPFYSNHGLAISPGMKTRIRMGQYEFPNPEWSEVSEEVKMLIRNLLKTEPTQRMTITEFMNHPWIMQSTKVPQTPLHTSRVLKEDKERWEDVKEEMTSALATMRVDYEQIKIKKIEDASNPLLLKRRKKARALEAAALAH
structure (smiles),measurement,setting,value
"CS(=O)(=O)Nc1cncc(-c2nc3cc(O)ccc3s2)c1 [4-99, N-(5-(5-Hydroxybenzo[d]thiazol-2-yl)pyridin-3-yl)methanesulfonamide]",inhibition at 1 µM,WNK1,0%
same,inhibition at 1 µM,p38d MAPK,0%
same,inhibition at 1 µM,PLK1,0%
same,inhibition at 1 µM,PKBa,0%
same,inhibition at 1 µM,MSK1,0%
same,inhibition at 1 µM,CSK,0%
same,inhibition at 1 µM,PDGFRA,0%
same,inhibition at 1 µM,EPH-A4,0%
same,inhibition at 1 µM,FGF-R1,0%
same,inhibition at 1 µM,PAK6,0%
same,inhibition at 1 µM,MLK3,0%
same,inhibition at 1 µM,SYK,0%
same,inhibition at 1 µM,MPSK1,11%
same,inhibition at 1 µM,TTBK1,0%
same,inhibition at 1 µM,IR,0%
same,inhibition at 1 µM,SmMLCK,0%
same,inhibition at 1 µM,HIPK3,0%
same,inhibition at 1 µM,TLK1,0%
same,inhibition at 1 µM,NUAK1,0%
same,inhibition at 1 µM,BRSK1,0%
same,inhibition at 1 µM,PAK4,0%
same,inhibition at 1 µM,PKBb,0%
same,inhibition at 1 µM,CHK2,0%
same,inhibition at 1 µM,p38a MAPK,0%
same,inhibition at 1 µM,MAP4K5,0%
same,inhibition at 1 µM,BTK,0%
same,inhibition at 1 µM,ASK1,0%
same,inhibition at 1 µM,DDR2,0%
same,inhibition at 1 µM,TIE2,3%
same,inhibition at 1 µM,IRAK1,0%
same,inhibition at 1 µM,MARK4,0%
same,inhibition at 1 µM,TAO1,0%
same,inhibition at 1 µM,TESK1,0%
same,inhibition at 1 µM,PKCa,0%
same,inhibition at 1 µM,YES1,0%
same,inhibition at 1 µM,MEKK1,0%
same,inhibition at 1 µM,STK33,0%
same,inhibition at 1 µM,BRK,0%
same,inhibition at 1 µM,CDK9-Cyclin T1,0%
same,inhibition at 1 µM,MAPKAP-K2,0%
same,inhibition at 1 µM,PAK5,0%
"COc1ccc2sc(-c3cncc(NC(C)=O)c3)nc2c1 [4-93, N-(5-(5-Methoxybenzo[d]thiazol-2-yl)pyridin-3-yl)acetamide]",inhibition at 1 µM,WNK1,0%
same,inhibition at 1 µM,p38d MAPK,0%
same,inhibition at 1 µM,PLK1,0%
same,inhibition at 1 µM,PKBa,0%
same,inhibition at 1 µM,MSK1,0%
same,inhibition at 1 µM,CSK,0%
same,inhibition at 1 µM,PDGFRA,0%
same,inhibition at 1 µM,EPH-A4,0%
same,inhibition at 1 µM,FGF-R1,0%
same,inhibition at 1 µM,PAK6,0%
same,inhibition at 1 µM,MLK3,0%
same,inhibition at 1 µM,SYK,0%
same,inhibition at 1 µM,MPSK1,0%
same,inhibition at 1 µM,TTBK1,0%
same,inhibition at 1 µM,IR,0%
same,inhibition at 1 µM,SmMLCK,0%
same,inhibition at 1 µM,HIPK3,0%
same,inhibition at 1 µM,TLK1,0%
same,inhibition at 1 µM,NUAK1,0%
same,inhibition at 1 µM,BRSK1,0%
same,inhibition at 1 µM,PAK4,0%
same,inhibition at 1 µM,PKBb,0%
same,inhibition at 1 µM,CHK2,0%
same,inhibition at 1 µM,p38a MAPK,0%
same,inhibition at 1 µM,MAP4K5,18%
same,inhibition at 1 µM,BTK,8%
same,inhibition at 1 µM,ASK1,0%
same,inhibition at 1 µM,DDR2,2%
same,inhibition at 1 µM,TIE2,0%
same,inhibition at 1 µM,IRAK1,0%
same,inhibition at 1 µM,MARK4,0%
same,inhibition at 1 µM,TAO1,0%
same,inhibition at 1 µM,TESK1,0%
same,inhibition at 1 µM,PKCa,0%
same,inhibition at 1 µM,YES1,0%
same,inhibition at 1 µM,MEKK1,0%
same,inhibition at 1 µM,STK33,0%
same,inhibition at 1 µM,BRK,0%
same,inhibition at 1 µM,CDK9-Cyclin T1,0%
same,inhibition at 1 µM,MAPKAP-K2,0%
same,inhibition at 1 µM,PAK5,0%
